This note sets out measurements from article PMC4331048 (Molecular and cellular biochemistry, 2011).

This experiment concerns the target CK2α (Homo sapiens, UniProt P68400). Kind of experiment: In vitro kinase assay, [γ-32P]ATP phosphorylation of purified CSQ2 by pure CK2α.

SMILES strings stand for the structures.

What is called IC50 is the midpoint of a concentration-inhibition curve.

CK2α, sequence (P68400 whole entry): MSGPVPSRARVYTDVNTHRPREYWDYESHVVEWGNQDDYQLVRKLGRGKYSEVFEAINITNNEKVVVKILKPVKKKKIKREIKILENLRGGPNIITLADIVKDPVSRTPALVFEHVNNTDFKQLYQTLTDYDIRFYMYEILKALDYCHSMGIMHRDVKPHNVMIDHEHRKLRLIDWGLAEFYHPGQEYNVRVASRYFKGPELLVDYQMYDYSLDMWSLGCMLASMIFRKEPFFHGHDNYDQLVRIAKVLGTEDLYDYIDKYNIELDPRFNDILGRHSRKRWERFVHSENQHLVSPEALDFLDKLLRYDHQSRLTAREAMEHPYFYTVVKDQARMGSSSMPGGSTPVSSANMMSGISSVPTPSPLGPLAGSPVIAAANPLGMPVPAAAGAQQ

`O=C(O)/C=C/c1cc(Br)c(Br)c(Br)c1Br` [TBCA] came in with an IC50 of around 10 µM.
